What was measured:
[1] = target: T1, PI3K-α (PIK3CA) H1047R mutant, p110α/p85α complex (Homo sapiens, UniProt P42336, H1047R); assay: PI3K-alpha kinase (PIK3CA) biochemical activity, ADP-Glo, H1047R mutant
T1 construct: Recombinant, catalytically active human full length PIK3KA Wild-type and H1047R mutant; 6×His (N); purchased EMD Millipore Sigma 14-792M
Method in brief: (§1)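 ADP formation measured by ADP-Glo luminescence after reaction at 27 °C to about 10% ATP turnover, using 20 uM ATP, 50 uM PIP2diC8 or soy PI lipid, HEPES pH 7.4 with MgCl2. Enzyme (1-5 nM WT or H1047R p110α/p85α) and compound preincubated 1 h first; 10-point 1:3 curves fitted four-parameter for IC50.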

[2] = target: T2, PI3K-α (PIK3CA) wild-type (WT), p110α/p85α complex (Homo sapiens, UniProt P42336); assay: PI3K-alpha kinase (PIK3CA) biochemical activity, ADP-Glo, wild-type
T2 construct: Recombinant, catalytically active human full length PIK3KA Wild-type and H1047R mutant; 6×His (N); purchased EMD Millipore Sigma 14-602M
Method in brief: as §1

[3] = target: PI3K-α (PIK3CA) in MDA-MB-453 cells (Homo sapiens, UniProt P42336); assay: PI3K-alpha kinase (PIK3CA) in vitro cell based assay, MDA-MB-453 cells, SureFire Ultra AlphaLisa; conditions: read-out: PI3K-α (PIK3CA) in vitro cell based assay IC50
Method in brief: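 Cells treated 3 h in serum-free MEM with 1 μg/mL insulin, 10-point 1:3 series in 0.3% DMSO, then lysed for SureFire Ultra AlphaLisa read-out. Inhibition normalized to DMSO (max) and 1 μM GDC-0032 (min); duplicate averages fitted by 4-parameter logistic for relative IC50.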

[4] = PIP2diC8 lipid substrate (footnote 1)

PI3K-α (PIK3CA) in MDA-MB-453 cells, sequence (P27986 2-724): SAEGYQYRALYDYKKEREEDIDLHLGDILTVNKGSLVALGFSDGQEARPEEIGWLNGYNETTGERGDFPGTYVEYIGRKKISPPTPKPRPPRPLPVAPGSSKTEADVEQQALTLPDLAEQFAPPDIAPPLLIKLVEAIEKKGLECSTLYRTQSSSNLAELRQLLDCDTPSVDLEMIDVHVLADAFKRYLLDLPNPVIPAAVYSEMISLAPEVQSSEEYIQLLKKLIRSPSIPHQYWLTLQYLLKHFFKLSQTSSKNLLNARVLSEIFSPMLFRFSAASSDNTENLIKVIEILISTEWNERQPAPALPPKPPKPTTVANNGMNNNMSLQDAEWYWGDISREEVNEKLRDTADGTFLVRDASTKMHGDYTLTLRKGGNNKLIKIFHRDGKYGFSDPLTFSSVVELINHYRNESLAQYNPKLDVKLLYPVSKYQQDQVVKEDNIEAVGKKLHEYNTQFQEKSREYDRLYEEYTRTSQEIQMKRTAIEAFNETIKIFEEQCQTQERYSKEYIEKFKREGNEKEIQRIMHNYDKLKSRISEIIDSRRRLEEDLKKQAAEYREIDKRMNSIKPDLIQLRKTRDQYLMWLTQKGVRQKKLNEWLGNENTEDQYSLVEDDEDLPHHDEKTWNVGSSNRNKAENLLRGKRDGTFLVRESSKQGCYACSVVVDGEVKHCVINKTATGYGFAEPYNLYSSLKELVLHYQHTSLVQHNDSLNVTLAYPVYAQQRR
PI3K-α (PIK3CA) in MDA-MB-453 cells, sequence (P42336 whole entry): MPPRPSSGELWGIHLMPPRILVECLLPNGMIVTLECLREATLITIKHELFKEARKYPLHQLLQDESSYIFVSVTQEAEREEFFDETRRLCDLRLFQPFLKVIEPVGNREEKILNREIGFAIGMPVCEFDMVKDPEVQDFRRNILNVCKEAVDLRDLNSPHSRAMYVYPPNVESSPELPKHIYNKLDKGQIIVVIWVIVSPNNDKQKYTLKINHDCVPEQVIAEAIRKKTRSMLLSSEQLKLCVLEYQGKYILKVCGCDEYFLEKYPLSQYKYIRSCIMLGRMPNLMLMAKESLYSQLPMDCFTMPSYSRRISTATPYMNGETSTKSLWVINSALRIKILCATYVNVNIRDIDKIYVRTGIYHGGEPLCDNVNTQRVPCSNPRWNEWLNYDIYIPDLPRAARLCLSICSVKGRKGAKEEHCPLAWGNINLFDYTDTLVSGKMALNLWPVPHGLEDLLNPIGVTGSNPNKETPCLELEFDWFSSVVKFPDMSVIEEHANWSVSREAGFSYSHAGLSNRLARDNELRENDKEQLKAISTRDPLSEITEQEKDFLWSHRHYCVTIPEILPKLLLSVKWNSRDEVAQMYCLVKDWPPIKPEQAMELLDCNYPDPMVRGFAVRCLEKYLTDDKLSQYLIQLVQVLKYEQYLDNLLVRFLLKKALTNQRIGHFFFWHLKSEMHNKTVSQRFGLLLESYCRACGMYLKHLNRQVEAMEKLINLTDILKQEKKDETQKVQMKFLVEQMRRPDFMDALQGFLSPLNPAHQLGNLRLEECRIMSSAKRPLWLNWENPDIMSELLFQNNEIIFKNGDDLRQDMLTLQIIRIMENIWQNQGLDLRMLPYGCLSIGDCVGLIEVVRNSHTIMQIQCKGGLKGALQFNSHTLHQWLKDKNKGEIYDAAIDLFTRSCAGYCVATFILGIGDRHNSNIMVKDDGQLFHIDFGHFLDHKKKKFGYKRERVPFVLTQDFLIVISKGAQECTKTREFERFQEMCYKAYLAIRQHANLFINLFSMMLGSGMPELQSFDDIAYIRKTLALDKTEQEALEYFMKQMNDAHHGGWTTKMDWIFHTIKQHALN
T1 sequence (P42336 whole entry H1047R): as the sequence (P42336 whole entry) above, with H1047R counted along it
T1 sequence (P27986 whole entry partner): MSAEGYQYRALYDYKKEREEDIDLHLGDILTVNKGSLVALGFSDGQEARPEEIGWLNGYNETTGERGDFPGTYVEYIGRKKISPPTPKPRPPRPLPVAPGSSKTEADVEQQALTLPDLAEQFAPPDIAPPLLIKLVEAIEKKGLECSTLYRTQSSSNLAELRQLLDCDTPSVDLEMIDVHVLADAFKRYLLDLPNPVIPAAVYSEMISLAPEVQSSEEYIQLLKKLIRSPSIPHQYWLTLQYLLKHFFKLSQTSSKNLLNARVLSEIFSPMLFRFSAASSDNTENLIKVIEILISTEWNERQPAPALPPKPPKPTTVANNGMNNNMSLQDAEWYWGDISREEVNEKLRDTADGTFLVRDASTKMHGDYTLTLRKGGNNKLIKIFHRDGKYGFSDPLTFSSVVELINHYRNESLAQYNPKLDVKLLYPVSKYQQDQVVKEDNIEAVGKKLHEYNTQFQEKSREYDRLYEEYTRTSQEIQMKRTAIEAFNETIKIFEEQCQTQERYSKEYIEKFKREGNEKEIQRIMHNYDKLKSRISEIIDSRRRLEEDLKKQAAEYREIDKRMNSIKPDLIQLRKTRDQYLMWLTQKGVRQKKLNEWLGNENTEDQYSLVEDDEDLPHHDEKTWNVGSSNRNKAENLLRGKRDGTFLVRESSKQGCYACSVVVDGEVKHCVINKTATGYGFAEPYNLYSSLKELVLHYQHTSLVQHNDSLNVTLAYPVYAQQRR

IC50 ([1]; Soy PI lipid substrate) [nM] | IC50 ([2]; Soy PI lipid substrate) [nM] | IC50 [3] [nM] | Compound | IC50 [1, 4] [nM] | IC50 [2, 4] [nM]
< 500 | 500 to 1000 | < 50 | Cc1cc([C@@H](C)Nc2ccc(Cl)nc2C(=O)O)c2oc(-c3ccc4nc(C)sc4c3)c(C)c(=O)c2c1 [Example 246, 6-Chloro-3-[[(1R)-1-[3,6-dimethyl-2-(2-methyl-l,3-benzothiazol-6-yl)-4-oxo-chromen-8-yl]ethyl]amino]pyridine-2-carboxylic acid] |  | 
< 500 | 1000 to 5000 | 50 to 100 | Cc1cc([C@@H](C)Nc2ccc(Cl)nc2C(=O)O)c2oc(-c3ccc4nc(C)sc4n3)cc(=O)c2c1 [Example 251, 6-Chloro-3-[[(1R)-1-[6-methyl-2-(2-methylthiazolo[5,4-b]pyridin-5-yl)-4-oxo-chromen-8-yl]ethyl]amino]pyridine-2-carboxylic acid] |  | 
< 500 | 500 to 1000 | < 50 | Cc1cc(C(C)Nc2ccc(Cl)nc2C(=O)O)c2oc(-c3cc4ccccc4[nH]3)cc(=O)c2c1 (single isomer, unassigned) [Example 223, 6-Chloro-3-[1-[2-(1H-indol-2-yl)-6-methyl-4-oxo-chromen-8-yl]ethylamino]pyridine-2-carboxylic acid] |  | 
< 500 | 500 to 1000 | < 50 | Cc1cc(C(C)Nc2ccccc2C(=O)O)c2oc(-n3ncc4ccccc43)cc(=O)c2c1 (single isomer, unassigned) [Example 49, 2-[1-(2-Indazol-1-yl-6-methyl-4-oxo-chromen-8-yl)ethylamino]benzoic acid] |  | 
< 500 | < 500 | < 50 | Cc1cc([C@@H](C)Nc2ccc(F)cc2C(=O)O)c2oc(-c3ccc4c(cnn4C)c3)c(C)c(=O)c2c1 [Example 260, 2-[[(1R)-1-[3,6-Dimethyl-2-(1-methylindazol-5-yl)-4-oxo-chromen-8-yl]ethyl]amino]-5-fluoro-benzoic acid] |  | 
< 500 | 500 to 1000 | < 50 | Cc1cc([C@@H](C)Nc2cccc(F)c2C(=O)O)c2oc(-c3ccc4nn(C)cc4c3)c(C)c(=O)c2c1 [Example 227, 2-[[(1R)-1-[3,6-Dimethyl-2-(2-methylindazol-5-yl)-4-oxo-chromen-8-yl]ethyl]amino]-6-fluoro-benzoic acid] |  | 
1000 to 5000 | 1000 to 5000 | > 500 | CC(Nc1ccccc1C(=O)O)c1cc(F)cc2c(=O)cc(-c3ccc4nn(C)cc4c3)oc12 (single isomer, unassigned) [Example 156, 2-[1-[6-Fluoro-2-(2-methylindazol-5-yl)-4-oxo-chromen-8-yl]ethylamino]benzoic acid] |  | 
< 500 | 1000 to 5000 | 50 to 100 | Cc1cc(C(C)Nc2ccccc2C(=O)O)c2oc(-c3ccc4cn(C)nc4c3)cc(=O)c2c1 (single isomer, unassigned) [Example 1, 2-[1-[6-Methyl-2-(2-methylindazol-6-yl)-4-oxo-chromen-8-yl]ethylamino]benzoic acid] |  | 
< 500 | 500 to 1000 | 50 to 100 | Cc1cc([C@@H](C)Nc2ccc(Cl)cc2C(=O)O)c2oc(-c3ccc4cnn(C)c4c3)cc(=O)c2c1 [Example 237, 5-Chloro-2-[[(1R)-1-[6-methyl-2-(1-methylindazol-6-yl)-4-oxo-chromen-8-yl]ethyl]amino]benzoic acid] |  | 
> 10000 | 5000 to 10000 | > 500 | Cc1cc(C(C)Nc2ccccc2C(=O)O)c2oc(-c3ccc4c(c3)CN(C)C4=O)cc(=O)c2c1 (single isomer, unassigned) [Example 32, 2-[1-[6-Methyl-2-(2-methyl-1-oxo-isoindolin-5-yl)-4-oxo-chromen-8-yl]ethylamino]benzoic acid] |  | 
< 500 | 500 to 1000 | < 50 | Cc1cc(C(C)Nc2ccccc2C(=O)O)c2oc(-c3ccc4nn(C)cc4c3)cc(=O)c2c1 (single isomer, unassigned) [Example 75, 2-[1-[6-Methyl-2-(2-methylindazol-5-yl)-4-oxo-chromen-8-yl]ethylamino]benzoic acid] |  | 
< 500 | 500 to 1000 | < 50 | Cc1cc([C@@H](C)Nc2ccc(Cl)nc2C(=O)O)c2oc(-c3ccc4nc(C)sc4n3)c(C)c(=O)c2c1 [Example 242, 6-Chloro-3-[[(1R)-1-[3,6-dimethyl-2-(2-methylthiazolo[5,4-b]pyridin-5-yl)-4-oxo-chromen-8-yl]ethyl]amino]pyridine-2-carboxylic acid] |  | 
1000 to 5000 | > 10000 | 100 to 500 | Cc1cc([C@@H](C)Nc2cccnc2C(=O)O)c2oc(-c3ccc4nc(C)sc4n3)cc(=O)c2c1 [Example 239, 3-[[(1R)-1-[6-Methyl-2-(2-methylthiazolo[5,4-b]pyridin-5-yl)-4-oxo-chromen-8-yl]ethyl]amino]pyridine-2-carboxylic acid] |  | 
< 500 | 500 to 1000 | 50 to 100 | Cc1cc([C@@H](C)Nc2cccc(F)c2C(=O)O)c2oc(-c3ccc4cc[nH]c4n3)cc(=O)c2c1 [Example 241, 2-Fluoro-6-[[(1R)-1-[6-methyl-4-oxo-2-(1H-pyrrolo[2,3-b]pyridin-6-yl)chromen-8-yl]ethyl]amino]benzoic acid] |  | 
< 500 | 500 to 1000 | < 50 | Cc1cc(C(C)Nc2ccccc2C(=O)O)c2oc(-c3ccc4c(c3)OCO4)c(C)c(=O)c2c1 (single isomer, unassigned) [Example 93, 2-[1-[2-(1,3-Benzodioxol-5-yl)-3,6-dimethyl-4-oxo-chromen-8-yl]ethylamino]benzoic acid] |  | 
< 500 | 500 to 1000 | < 50 | Cc1cc([C@@H](C)Nc2ccc(F)cc2C(=O)O)c2oc(-c3ccc4nc(C)sc4n3)c(C)c(=O)c2c1 [Example 254, 2-[[(1R)-1-[3,6-Dimethyl-2-(2-methylthiazolo[5,4-b]pyridin-5-yl)-4-oxo-chromen-8-yl]ethyl]amino]-5-fluoro-benzoic acid] |  | 
< 500 | 1000 to 5000 | 50 to 100 | Cc1cc(C(C)Nc2ccccc2C(=O)O)c2oc(-c3cnn4cccnc34)cc(=O)c2c1 (single isomer, unassigned) [Example 34, 2-[1-(6-Methyl-4-oxo-2-pyrazolo[1,5-a]pyrimidin-3-yl-chromen-8-yl)ethylamino]benzoic acid] |  | 
1000 to 5000 | > 10000 | 50 to 100 | Cc1cc([C@@H](C)Nc2cccnc2C(=O)O)c2oc(-c3nn(C)c4ccccc34)c(C)c(=O)c2c1 [Example 205, 3-[[(1R)-1-[3,6-Dimethyl-2-(1-methylindazol-3-yl)-4-oxo-chromen-8-yl]ethyl]amino]pyridine-2-carboxylic acid] |  | 
1000 to 5000 | 500 to 1000 | > 500 | Cc1cc(C(C)Nc2cccc(F)c2C(=O)O)c2oc(-c3ccc4cnn(C)c4c3)cc(=O)c2c1 (single isomer, unassigned) [Example 221, 2-fluoro-6-[1-[6-methyl-2-(1-methylindazol-6-yl)-4-oxo-chromen-8-yl]ethylamino]benzoic acid] |  | 
< 500 | 500 to 1000 | < 50 | Cc1cc([C@@H](C)Nc2ccccc2C(=O)O)c2oc(-c3ccc4nc(C)oc4n3)c(C)c(=O)c2c1 [Example 256, 2-[[(1R)-1-[3,6-Dimethyl-2-(2-methyloxazolo[5,4-b]pyridin-5-yl)-4-oxo-chromen-8-yl]ethyl]amino]benzoic acid] |  | 

Compound | IC50 ([1]; Soy PI lipid substrate) [nM] | IC50 ([2]; Soy PI lipid substrate) [nM] | IC50 [3] [nM] | IC50 [1, 4] [nM] | IC50 [2, 4] [nM]
Cc1cc(C(C)Nc2ccccc2C(=O)O)c2oc(-c3cc4ccncc4o3)cc(=O)c2c1 (stereo not drawn) [Example 7, 2-[1-(2-Furo[2,3-c]pyridin-2-yl-6-methyl-4-oxo-chromen-8-yl)ethylamino]benzoic acid] |  |  | 50 to 100 | < 500 | < 500
Cc1cc(C(C)Nc2ccccc2C(=O)O)c2oc(-n3ncc4c(F)cccc43)cc(=O)c2c1 (single isomer, unassigned) [Example 86] | < 500 | 500 to 1000 | 50 to 100 |  | 
Cc1cc(C(C)Nc2ccccc2C(=O)O)c2oc(-c3cc4cnccc4o3)cc(=O)c2c1 (single isomer, unassigned) [Example 22, 2-[1-(2-Furo[3,2-c]pyridin-2-yl-6-methyl-4-oxo-chromen-8-yl)ethylamino]benzoic acid] | < 500 | 500 to 1000 | < 50 |  | 
Cc1cc(C(C)Nc2ccccc2C(=O)O)c2oc(-c3ccc4cnn(C)c4c3)c(C)c(=O)c2c1 (single isomer, unassigned) [Example 149, 2-[1-[3,6-Dimethyl-2-(1-methylindazol-6-yl)-4-oxo-chromen-8-yl]ethylamino]benzoic acid] | < 500 | < 500 | < 50 |  | 
Cc1cn2cc(-c3cc(=O)c4cc(F)cc(C(C)Nc5ccccc5C(=O)O)c4o3)ccc2n1 (single isomer, unassigned) [Example 51, 2-[1-[6-Fluoro-2-(2-methylimidazo[1,2-a]pyridin-6-yl)-4-oxo-chromen-8-yl]ethylamino]benzoic acid] | < 500 | 1000 to 5000 | < 50 |  | 
